Source: patent publication US20250270190A1, “KIT INHIBITORS” (BLUEPRINT MEDICINES CORPORATION, priority 2022, published 2025)
pIC50: −log10 of the molar value. Where a name gives a salt, the structure may show the parent alone.

These compounds were tested against T1, c-kit autophosphorylation (Phospho c-Kit Tyr721) in HMC 1.1 (exon 11/13) cells, V654A (Homo sapiens, UniProt P10721, V560G/V654A) (assay: pKIT Meso Scale Discovery (MSD) assay, inhibition of autophosphorylation of KIT, HMC1.1_V654A). Conditions: Table 1, cell line not named for Table 1, b1056 names pKIT HMC1.1_V654A, read-out: Code (IC50 for inhibition of autophosphorylation of KIT, pKIT MSD assay).
T1 construct: endogenous in cells; host or cells: HMC 1.1 (exon 11/13) cells
Type: cell-based
Outline: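 HMC1.1 cells were serum-starved for 4 h in serum-free, iron-free, phenol red-free IMDM, then treated with compound in dose-response for 90 min at 37 °C. Staurosporine and DMSO served as controls. Lysates were analysed by MSD electrochemiluminescence immunoassay for phospho-c-Kit Tyr721, and % inhibition of autophosphorylation was derived.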

T1 sequence (P10721 26-976 V560G/V654A): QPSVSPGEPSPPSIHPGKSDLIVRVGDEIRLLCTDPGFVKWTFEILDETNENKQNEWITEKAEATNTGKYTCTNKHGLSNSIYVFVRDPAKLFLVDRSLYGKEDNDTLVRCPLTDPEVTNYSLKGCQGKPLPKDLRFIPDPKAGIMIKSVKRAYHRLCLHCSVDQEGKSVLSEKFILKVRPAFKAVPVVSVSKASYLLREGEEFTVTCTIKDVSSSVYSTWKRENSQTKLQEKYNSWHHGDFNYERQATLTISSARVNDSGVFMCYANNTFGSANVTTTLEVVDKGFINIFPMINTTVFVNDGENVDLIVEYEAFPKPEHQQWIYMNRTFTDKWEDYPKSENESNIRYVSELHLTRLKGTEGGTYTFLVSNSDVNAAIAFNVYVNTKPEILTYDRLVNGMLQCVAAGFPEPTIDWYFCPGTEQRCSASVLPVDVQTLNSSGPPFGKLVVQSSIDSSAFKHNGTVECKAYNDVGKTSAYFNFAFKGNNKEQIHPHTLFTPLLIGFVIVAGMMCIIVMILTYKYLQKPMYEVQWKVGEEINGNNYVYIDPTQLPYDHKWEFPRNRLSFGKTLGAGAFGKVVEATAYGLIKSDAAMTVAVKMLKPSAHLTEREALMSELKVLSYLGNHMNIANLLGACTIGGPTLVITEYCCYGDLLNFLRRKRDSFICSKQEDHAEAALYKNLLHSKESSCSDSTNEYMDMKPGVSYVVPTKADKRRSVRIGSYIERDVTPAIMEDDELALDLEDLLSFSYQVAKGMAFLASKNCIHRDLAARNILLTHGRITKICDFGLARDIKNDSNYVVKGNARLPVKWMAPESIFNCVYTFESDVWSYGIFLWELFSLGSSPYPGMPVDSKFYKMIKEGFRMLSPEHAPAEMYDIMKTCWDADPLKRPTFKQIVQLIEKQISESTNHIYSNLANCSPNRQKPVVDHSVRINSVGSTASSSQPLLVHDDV

| SMILES | pIC50 |
| --- | --- |
| CNC(C)Cn1cc(-c2cnc(Nc3cc(N)nc(C(F)F)n3)cc2OC2CC2)cn1 (stereo not shown) [Compound 170, N4-(4-cyclopropoxy-5-(1-(2-(methylamino)propyl)-1H-pyrazol-4-yl)pyridin-2-yl)-2-(difluoromethyl)pyrimidine-4,6-diamine] | > 8.00 |
| CN[C@H](C)Cn1cc(-c2cnc(Nc3cc(N)nc(C(F)F)n3)cc2OC)cn1 (single isomer, unassigned) [Compound 118, (R)-2-(difluoromethyl)-N4-(4-methoxy-5-(1-(2-(methylamino)propyl)-1H-pyrazol-4-yl)pyridin-2-yl)pyrimidine-4,6-diamine or (S)-2-(difluoromethyl)-N4-(4-methoxy-5-(1-(2-(methylamino)propyl)-1H-pyrazol-4-yl)pyridin-2-yl)pyrimidine-4,6-diamine] | 7.40 to 8.00 |
| CCNc1cc(Nc2cc(N)nc(C(F)F)n2)ncc1C(=O)NCc1ncco1 [Compound 114, 6-((6-amino-2-(difluoromethyl)pyrimidin-4-yl)amino)-4-(ethylamino)-N-(oxazol-2-ylmethyl)nicotinamide] | 7.40 to 8.00 |
| C[C@H](CF)Nc1cc(Nc2cc(N)nc(C(F)F)n2)ncc1C(=O)NCc1cocn1 [Compound 177, (R)-6-((6-amino-2-(difluoromethyl)pyrimidin-4-yl)amino)-4-((1-fluoropropan-2-yl)amino)-N-(oxazol-4-ylmethyl)nicotinamide] | 7.40 to 8.00 |
| Nc1cc(Nc2cc(OC3CC3)c(-c3cnn(C[C@@H]4CCN4)c3)cn2)nc(C(F)F)n1 (single isomer, unassigned) [Compound 162, (S)-N4-(5-(1-(azetidin-2-ylmethyl)-1H-pyrazol-4-yl)-4-cyclopropoxypyridin-2-yl)-2-(difluoromethyl)pyrimidine-4,6-diamine or (R)-N4-(5-(1-(azetidin-2-ylmethyl)-1H-pyrazol-4-yl)-4-cyclopropoxypyridin-2-yl)-2-(difluoromethyl)pyrimidine-4,6-diamine] | > 8.00 |
| Nc1cc(Nc2cc(OC(F)F)c(-c3cnn(CCN4CCC4)c3)cn2)nc(C(F)F)n1 [Compound 191, N4-(5-(1-(2-(azetidin-1-yl)ethyl)-1H-pyrazol-4-yl)-4-(difluoromethoxy)pyridin-2-yl)-2-(difluoromethyl)pyrimidine-4,6-diamine] | > 8.00 |
| CNC(=O)c1cnc(Nc2cc(N)nc(C(F)F)n2)cc1NCc1ccccc1 [Compound 92, 6-((6-amino-2-(difluoromethyl)pyrimidin-4-yl)amino)-4-(benzylamino)-N-methylnicotinamide] | 7.40 to 8.00 |

Other lines, results leading:

| pIC50 | SMILES |
| --- | --- |
| > 8.00 | Nc1cc(Nc2cc(NC3CC3)c(C(=O)NC34CC(CO)(C3)C4)cn2)nc(C(F)F)n1 [Compound 174, 6-((6-amino-2-(difluoromethyl)pyrimidin-4-yl)amino)-4-(cyclopropylamino)-N-(3-(hydroxymethyl)bicyclo[1.1.1]pentan-1-yl)nicotinamide] |
| < 7.40 | CNc1cc(Nc2cc(N)nc(C(F)F)n2)ncc1C(=O)NCC#N [Compound 22, 6-((6-amino-2-(difluoromethyl)pyrimidin-4-yl)amino)-N-(cyanomethyl)-4-(methylamino)nicotinamide] |
| 7.40 to 8.00 | CNc1cc(Nc2cc(N)nc(CF)n2)ncc1C(=O)NC1CC1 [Compound 7, 6-((6-amino-2-(fluoromethyl)pyrimidin-4-yl)amino)-N-cyclopropyl-4-(methylamino)nicotinamide] |
| > 8.00 | CC(C)Nc1cc(Nc2cc(N)nc(C(F)F)n2)ncc1C(=O)NC1CC1 [Compound 60, 6-((6-amino-2-(difluoromethyl)pyrimidin-4-yl)amino)-N-cyclopropyl-4-(isopropylamino)nicotinamide trifluoroacetate] |
| > 8.00 | CCNc1cc(Nc2cc(N)nc(C(F)F)n2)ncc1C(=O)NC [Compound 12, 6-((6-amino-2-(difluoromethyl)pyrimidin-4-yl)amino)-4-(ethylamino)-N-methylnicotinamide] |
| 7.40 to 8.00 | CCNC(=O)c1cnc(Nc2cc(N)nc(C(F)F)n2)cc1NC [Compound 13, 6-((6-amino-2-(difluoromethyl)pyrimidin-4-yl)amino)-N-ethyl-4-(methylamino)nicotinamide] |
